This note sets out measurements from US11136283B2, “Recovering and purifying resveratrol produced by microbial fermentation” (EVOLVA SA, priority 2017, dated 2021).

Each structure is given as a SMILES string. Several values for one entry are separate records, joined by “and”; a condition that tells them apart may be missing. Equal values may be shown once.

This data set in a line: Stability of resveratrol in ultrafiltration filtrates concentrated by reverse osmosis and held at pH 11. The conditions noted are these: held at pH 11 for 3 to 7 days at 5° C. to 8° C., at production vs 7 days after. It counts as physicochemical. As for the experimental part: It is advantageous for process intermediate materials to have a high degree of stability, so that they can be processed over time without the need for immediate processing on equipment with high capacity. The various filtrates from the ultrafiltration tests were concentrated by reverse osmosis and held at pH 11 for 3 to 7 days at 5° C. to 8° C. to evaluate their stability. The product decomposition is a comparison between the composition at the time of production and that measured 7 days after production. The stability improved monotonically as the molecular weight cutoff of the ultrafilter was decreased from 100 kDa to 25 kDa to 5 kDa. 11%, 7%, and 5% of the resveratrol was decomposed in the respective tests.

As for `Oc1ccc(/C=C/c2cc(O)cc(O)c2)cc1` [resveratrol, 3,5,4′-trihydroxy-trans-stilbene], the “Product Decomposition” value runs as follows: (filtrate from GR40PP 100 kDa ultrafilter, broth EFSC4687) 11.5%; (filtrate from GR40PP 100 kDa ultrafilter, broth EFSC 21811) 11% and 10.7%; (filtrate from GR60PP 25 kDa ultrafilter) 7%; (filtrate from GR90PP 5 kDa ultrafilter) 5%.
